From US20190343793A1, “COMPOSITIONS COMPRISING A CANNABINOID RECEPTOR BINDING LIGAND” (NOVALIQ GMBH, priority 2016, published 2019)

Assay: Storage stability in a liquid vehicle comprising a semifluorinated alkane

CCCCCc1cc(O)c2c(c1)OC(C)(C)[C@@H]1CCC(C)=C[C@@H]21 [delta-9-Tetrahydrocannabinol (THC), (−)-(6aR,10aR)-6,6,9-Trimethyl-3-pentyl-6a,7,8,10a-tetrahydro-6H-benzo[c]chromen-1-ol]
Storage period when dissolved or suspended in liquid vehicle comprising semifluorinated alkane (liquid vehicle comprising at least one semifluorinated alkane): up to 2 years
Stability when air was not excluded (liquid vehicle with high content of, or essentially consisting of, F4H5 or F6H8): stable even when air was not excluded
